Laboratory results: US8952024B2, “Herbicidal pyrimidone derivatives” (E I du Pont de Nemours and Company, priority 2009, dated 2015)
Read-outs that look alike come from different tables or passages of the source.

Key:
Format in all cases: in vivo
[1] = system: sunflower (common oilseed sunflower, Helianthus annuus); test: Test B pre-/postemergence plant response; details: Preemergence
In short: (§1)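 Seeds sown in loam–sand blend were treated preemergence, and plants at 2–18 cm (1- to 4-leaf stage) in peat-based medium were treated postemergence; compounds were formulated in non-phytotoxic solvent with surfactant. After 13–15 days in greenhouse, response was visually rated against controls, 0 (no effect) to 100 (complete control).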

[2] = system: galium (catchweed bedstraw, Galium aparine); test: Test B pre-/postemergence plant response; details: Preemergence
In short: as §1

[3] = system: nightshade (eastern black nightshade, Solanum ptycanthum); test: Test B pre-/postemergence plant response; details: Preemergence
In short: as §1

[4] = system: canarygrass (Phalaris minor); test: Test B postemergence plant response
In short: (§2)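 Plants grown in peat/vermiculite medium were sprayed postemergence at 2–18 cm height (1- to 4-leaf stage). After 13–15 days in the greenhouse, response was rated visually against untreated controls on a 0–100 scale (0 no effect, 100 complete control).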

[5] = system: winter barley (Hordeum vulgare); test: Test B postemergence plant response
In short: as §2

[6] = system: chickweed (Stellaria media); test: Test B postemergence plant response
In short: as §2

[7] = system: windgrass (Apera spica-venti); test: Test B postemergence plant response
In short: as §2

[8] = system: corn (Zea mays); test: Test A pre-/postemergence plant response; details: Zea mays, 240 h; for Corn plant response rating (crop injury, 0 = no effect, 100 = complete kill) at 125 g/ha: 125 g ai/ha; for Corn plant response rating (crop injury, 0 = no effect, 100 = complete kill) at 500 g/ha: 500 g ai/ha, approx. ten days
In short: (§3)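 Greenhouse pots of loam/sand received directed preemergence soil sprays or postemergence sprays (plants 2–10 cm, 1–2 leaf stage), compounds formulated in non-phytotoxic solvent with surfactant. Injury was rated visually versus untreated controls after about ten days on a 0 (no effect) to 100 (complete control) scale.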

[9] = system: morningglory (Ipomoea spp.); test: Test A pre-/postemergence plant response; details: Ipomoea, 240 h, read-out: Plant response rating, Morningglory; for pest or weed control at 125 g/ha: 125 g ai/ha; for pest or weed control at 500 g/ha: 500 g ai/ha, approx. ten days
In short: as §3

[10] = system: giant foxtail (Setaria faberii); test: Test A pre-/postemergence plant response; details: Setaria faberi, 240 h, read-out: Plant response rating, Foxtail, Giant; for pest or weed control at 125 g/ha: 125 g ai/ha; for pest or weed control at 500 g/ha: 500 g ai/ha, approx. ten days
In short: as §3

[11] = system: wheat (Triticum aestivum); test: Test A pre-/postemergence plant response; details: Triticum aestivum, 240 h, read-out: Plant response rating, Wheat; for plant injury at 125 g/ha: 125 g ai/ha; for plant injury at 500 g/ha: 500 g ai/ha, approx. ten days
In short: as §3

[12] = system: velvetleaf (Abutilon theophrasti); test: Test A pre-/postemergence plant response; details: Abutilon theophrasti, 240 h, read-out: Plant response rating, Velvetleaf; for pest or weed control at 125 g/ha: 125 g ai/ha; for pest or weed control at 500 g/ha: 500 g ai/ha, approx. ten days
In short: as §3

[13] = system: large crabgrass (Digitaria sanguinalis); test: Test A pre-/postemergence plant response; details: Digitaria sanguinalis, 240 h, read-out: Plant response rating, Crabgrass, Large; for pest or weed control at 125 g/ha: 125 g ai/ha; for pest or weed control at 500 g/ha: 500 g ai/ha, approx. ten days
In short: as §3

[14] = 31 g ai/ha, scale 0 to 100 (0 no effect, 100 complete control)
[15] = 62 g ai/ha, scale 0 to 100, 0 no effect, 100 complete control
[16] = 125 g ai/ha, scale 0 to 100, 0 no effect, 100 complete control
[17] = 62 g ai/ha, postemergence, 0 is no effect, 100 is complete control, 13 to 15 days
[18] = post-emergence, Postemergence, 0 to 100 scale where 0 is no effect and 100 is complete control
[19] = post-emergence, Postemergence, 0 to 100 scale, 0 = no effect, 100 = complete control
[20] = pre-emergence, Preemergence, 0 to 100 scale, 0 = no effect, 100 = complete control
[21] = pre-emergence, Preemergence, visual injury, 0 to 100 scale (0 no effect, 100 complete control)

## COCCCn1c(-c2ccccc2)ncc(C(=O)C2=C(O)CCCC2=O)c1=O [Compound 81, 5-[(2-hydroxy-6-oxo-cyclohexen-1-yl)carbonyl]-3-(3-methoxypropyl)-2-phenyl-4(3H)-pyrimidinone]
[1]; [14]
  Plant response rating, Sunflower: 60
[1]; [15]
  Plant response rating, Sunflower: 75
[1]; [16]
  Plant response rating, Sunflower: 85
[1]; 250 g ai/ha, 0 to 100 scale
  Sunflower plant response rating: 90
[2]; [14]
  Plant response rating, Galium: 85
[2]; [15]
  Plant response rating, Galium: 100
[2]; [16]
  Plant response rating, Galium: 100
[2]; 250 g ai/ha, 0 to 100 scale
  Galium plant response rating: 100
[3]; [14]
  Plant response rating, Nightshade: 98
[3]; [15]
  Plant response rating, Nightshade: 98
[3]; [16]
  Plant response rating, Nightshade: 98
[3]; 250 g ai/ha, 0 to 100 scale
  Nightshade plant response rating: 100
[4]; [17]
  Canarygrass plant response rating (0 to 100 scale): 5
[4]; Phalaris minor, post-emergence, 360 h, 31 g ai/ha, postemergence, scale 0 to 100, 0 is no effect, 100 is complete control, read-out: Plant response rating, Canarygrass
  pest or weed control at 31 g/ha: 0%
[4]; Phalaris minor, post-emergence, 360 h, Postemergence, 125 g ai/ha, visual rating after 13 to 15 days, scale 0 (no effect) to 100 (complete control)
  pest or weed control at 125 g/ha: 10%
[4]; Phalaris minor, post-emergence, 360 h, Postemergence, 250 g ai/ha, scale 0 to 100 (0 no effect, 100 complete control), read-out: Plant response rating, Canarygrass
  pest or weed control at 250 g/ha: 20%
[5]; [17]
  Barley plant response rating (0 to 100 scale): 0
[5]; Hordeum vulgare, post-emergence, 31 g ai/ha, postemergence, scale 0 to 100, 0 is no effect, 100 is complete control, read-out: Plant response rating, Barley
  plant injury at 31 g/ha: 0%
[5]; Hordeum vulgare, post-emergence, Postemergence, 125 g ai/ha, visual rating after 13 to 15 days, scale 0 (no effect) to 100 (complete control)
  plant injury at 125 g/ha: 0%
[5]; Hordeum vulgare, post-emergence, Postemergence, 250 g ai/ha, scale 0 to 100 (0 no effect, 100 complete control), read-out: Plant response rating, Barley
  plant injury at 250 g/ha: 5%
[6]; [17]
  Chickweed plant response rating (0 to 100 scale): 98
[6]; Stellaria media, post-emergence, 360 h, 31 g ai/ha, postemergence, scale 0 to 100, 0 is no effect, 100 is complete control, read-out: Plant response rating, Chickweed
  pest or weed control at 31 g/ha: 95%
[6]; Stellaria media, post-emergence, 360 h, Postemergence, 125 g ai/ha, visual rating after 13 to 15 days, scale 0 (no effect) to 100 (complete control)
  pest or weed control at 125 g/ha: 98%
[6]; Stellaria media, post-emergence, 360 h, Postemergence, 250 g ai/ha, scale 0 to 100 (0 no effect, 100 complete control), read-out: Plant response rating, Chickweed
  pest or weed control at 250 g/ha: 100%
[7]; [17]
  Windgrass plant response rating (0 to 100 scale): 50
[7]; Apera spica-venti, post-emergence, 360 h, 31 g ai/ha, postemergence, scale 0 to 100, 0 is no effect, 100 is complete control, read-out: Plant response rating, Windgrass
  pest or weed control at 31 g/ha: 10%
[7]; Apera spica-venti, post-emergence, 360 h, Postemergence, 125 g ai/ha, visual rating after 13 to 15 days, scale 0 (no effect) to 100 (complete control)
  pest or weed control at 125 g/ha: 60%
[7]; Apera spica-venti, post-emergence, 360 h, Postemergence, 250 g ai/ha, scale 0 to 100 (0 no effect, 100 complete control), read-out: Plant response rating, Windgrass
  pest or weed control at 250 g/ha: 70%
[8]; [18]
  Corn plant response rating (crop injury, 0 = no effect, 100 = complete kill) at 125 g/ha: 10%
[8]; [19]
  Corn plant response rating (crop injury, 0 = no effect, 100 = complete kill) at 500 g/ha: 70%
[8]; [20]
  Corn plant response rating (crop injury, 0 = no effect, 100 = complete kill) at 125 g/ha: 0%
[8]; [21]
  Corn plant response rating (crop injury, 0 = no effect, 100 = complete kill) at 500 g/ha: 0%
[9]; [18]
  pest or weed control at 125 g/ha: 90%
[9]; [19]
  pest or weed control at 500 g/ha: 100%
[9]; [20]
  pest or weed control at 125 g/ha: 0%
[9]; [21]
  pest or weed control at 500 g/ha: 70%
[10]; [18]
  pest or weed control at 125 g/ha: 80%
[10]; [19]
  pest or weed control at 500 g/ha: 90%
[10]; [20]
  pest or weed control at 125 g/ha: 30%
[10]; [21]
  pest or weed control at 500 g/ha: 80%
[11]; [18]
  plant injury at 125 g/ha: 0%
[11]; [19]
  plant injury at 500 g/ha: 30%
[11]; [20]
  plant injury at 125 g/ha: 0%
[11]; [21]
  plant injury at 500 g/ha: 20%
[12]; [18]
  pest or weed control at 125 g/ha: 100%
[12]; [19]
  pest or weed control at 500 g/ha: 100%
[12]; [20]
  pest or weed control at 125 g/ha: 100%
[12]; [21]
  pest or weed control at 500 g/ha: 100%
[13]; [18]
  pest or weed control at 125 g/ha: 90%
[13]; [19]
  pest or weed control at 500 g/ha: 90%
[13]; [20]
  pest or weed control at 125 g/ha: 90%
[13]; [21]
  pest or weed control at 500 g/ha: 100%
